The source made the active and inactive calls.
Tests used:
CHO-K1 = assay: (§1) Counterscreen for antagonists of the orexin 1 receptor (OX1R; HCRTR1): Homogeneous time resolved fluorescence (HTRF)-based cell-based dose response assay to identify antagonists of the parental CHO-K1 cell line. [Related pubchem assays (depositor defined):AID434989, AID435008, AID463079, AID485270, AID492963, AID492964, AID492965, AID493232, AID504699, AID504701]; type: functional; conditions: Cricetulus griseus
[1] = as §1, with “Fluorescence-based” for “Homogeneous time resolved fluorescence (HTRF)-based”, “cell-based high throughput” for “cell-based”, “CHO” for “CHO-K1”; type: functional
[2] = target: T1, Orexin/Hypocretin receptor type 1 (Homo sapiens, UniProt O43613); assay: Homogeneous Time Resolved Fluorescence (HTRF)-based cell-based high throughput dose response assay for antagonists of the orexin 1 receptor (OX1R; HCRTR1). [Related pubchem assays (depositor defined):AID434989, AID435008, AID463079, AID485270, AID492963, AID492964, AID492965, AID493232, AID504717, AID504718]; type: functional
T1 sequence (O43613 whole entry): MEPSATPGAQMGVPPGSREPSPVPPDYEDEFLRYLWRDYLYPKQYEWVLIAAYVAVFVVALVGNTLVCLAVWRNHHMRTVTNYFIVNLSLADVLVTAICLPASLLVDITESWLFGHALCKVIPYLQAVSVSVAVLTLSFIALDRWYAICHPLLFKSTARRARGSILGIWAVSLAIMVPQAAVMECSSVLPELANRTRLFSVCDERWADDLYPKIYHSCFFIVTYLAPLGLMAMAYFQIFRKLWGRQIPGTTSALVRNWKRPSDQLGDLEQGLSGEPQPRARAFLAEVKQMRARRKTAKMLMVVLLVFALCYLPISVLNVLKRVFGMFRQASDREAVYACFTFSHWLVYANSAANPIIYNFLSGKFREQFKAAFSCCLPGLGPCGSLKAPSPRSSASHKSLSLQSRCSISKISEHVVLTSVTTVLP

[3] = target: T1, Orexin/Hypocretin receptor type 1; assay: Fluorescence-based cell-based high throughput dose response assay for antagonists of the orexin 1 receptor (OX1R; HCRTR1). [Related pubchem assays (depositor defined):AID434989, AID435008, AID463079, AID485270, AID492963, AID492964, AID492965, AID493232, AID504717, AID504718]; type: functional
Orexin receptor type 2 [4] = target: T2, Orexin receptor type 2 (Homo sapiens, UniProt O43614); assay: Counterscreen assay for antagonists of the orexin 1 receptor (OX1R; HCRTR1): Fluorescence-based cell-based dose response assay for antagonists of the orexin 2 receptor (OX2R; HCRTR2), run by assay provider.; type: functional
T2 sequence (O43614 whole entry): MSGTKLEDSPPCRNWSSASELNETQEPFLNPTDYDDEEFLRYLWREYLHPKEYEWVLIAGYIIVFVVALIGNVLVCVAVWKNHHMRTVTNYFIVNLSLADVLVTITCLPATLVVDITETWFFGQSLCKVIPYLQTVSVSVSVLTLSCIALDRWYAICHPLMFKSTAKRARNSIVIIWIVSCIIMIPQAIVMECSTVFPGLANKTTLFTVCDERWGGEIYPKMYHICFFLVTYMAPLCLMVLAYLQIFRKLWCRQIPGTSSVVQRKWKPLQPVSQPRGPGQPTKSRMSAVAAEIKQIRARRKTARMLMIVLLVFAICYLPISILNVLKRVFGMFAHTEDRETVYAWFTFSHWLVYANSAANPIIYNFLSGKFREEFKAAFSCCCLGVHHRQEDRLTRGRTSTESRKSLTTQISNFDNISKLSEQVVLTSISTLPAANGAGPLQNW

Orexin receptor type 2 [5] = target: T2, Orexin receptor type 2; assay: Counterscreen assay for antagonists of the orexin 1 receptor (OX1R; HCRTR1): Homogeneous Time Resolved Fluorescence (HTRF)-based cell-based dose response assay for antagonists of the orexin 2 receptor (OX2R; HCRTR2), run by assay provider.; type: functional
[6] = target: T3, Replicative DNA helicase DnaB (Mycobacterium tuberculosis, UniProt P9WMR3); assay: DnaB intein splicing inhibitors, dose response, biochemical, cell-free fluorescence (AID 449749); type: functional
T3 sequence (P9WMR3 whole entry): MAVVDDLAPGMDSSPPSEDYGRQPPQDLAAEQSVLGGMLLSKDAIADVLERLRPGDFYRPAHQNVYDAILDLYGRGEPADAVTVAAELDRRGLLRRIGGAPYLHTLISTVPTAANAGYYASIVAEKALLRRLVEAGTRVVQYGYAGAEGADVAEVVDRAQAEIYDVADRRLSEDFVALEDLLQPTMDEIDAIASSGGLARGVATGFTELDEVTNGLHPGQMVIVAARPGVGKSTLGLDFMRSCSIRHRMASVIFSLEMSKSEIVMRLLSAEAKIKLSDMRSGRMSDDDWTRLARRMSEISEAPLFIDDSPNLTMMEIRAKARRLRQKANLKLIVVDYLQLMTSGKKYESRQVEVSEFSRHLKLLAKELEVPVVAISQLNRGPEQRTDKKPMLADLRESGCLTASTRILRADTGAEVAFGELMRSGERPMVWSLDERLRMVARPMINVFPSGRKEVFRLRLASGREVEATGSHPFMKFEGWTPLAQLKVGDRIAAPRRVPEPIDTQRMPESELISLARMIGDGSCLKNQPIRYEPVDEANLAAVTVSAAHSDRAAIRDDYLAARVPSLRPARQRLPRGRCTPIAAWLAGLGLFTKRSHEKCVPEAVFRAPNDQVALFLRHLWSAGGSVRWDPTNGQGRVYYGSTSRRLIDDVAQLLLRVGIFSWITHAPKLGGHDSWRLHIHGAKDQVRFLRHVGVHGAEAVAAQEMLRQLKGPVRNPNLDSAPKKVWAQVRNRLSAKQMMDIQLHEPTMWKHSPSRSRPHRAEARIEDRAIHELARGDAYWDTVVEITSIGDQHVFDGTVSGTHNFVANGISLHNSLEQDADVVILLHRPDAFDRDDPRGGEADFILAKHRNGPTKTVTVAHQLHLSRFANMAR

Protein RecA = target: T4, Protein RecA (Mycobacterium tuberculosis, UniProt P9WHJ3); assay: Fluorescence Cell-Free Homogeneous Dose Retest to Identify Inhibitors of RecA-Intein Splicing Activity. [Related pubchem assays (depositor defined):AID2097, AID2223, AID489010, AID492950]; type: functional
T4 sequence (P9WHJ3 whole entry): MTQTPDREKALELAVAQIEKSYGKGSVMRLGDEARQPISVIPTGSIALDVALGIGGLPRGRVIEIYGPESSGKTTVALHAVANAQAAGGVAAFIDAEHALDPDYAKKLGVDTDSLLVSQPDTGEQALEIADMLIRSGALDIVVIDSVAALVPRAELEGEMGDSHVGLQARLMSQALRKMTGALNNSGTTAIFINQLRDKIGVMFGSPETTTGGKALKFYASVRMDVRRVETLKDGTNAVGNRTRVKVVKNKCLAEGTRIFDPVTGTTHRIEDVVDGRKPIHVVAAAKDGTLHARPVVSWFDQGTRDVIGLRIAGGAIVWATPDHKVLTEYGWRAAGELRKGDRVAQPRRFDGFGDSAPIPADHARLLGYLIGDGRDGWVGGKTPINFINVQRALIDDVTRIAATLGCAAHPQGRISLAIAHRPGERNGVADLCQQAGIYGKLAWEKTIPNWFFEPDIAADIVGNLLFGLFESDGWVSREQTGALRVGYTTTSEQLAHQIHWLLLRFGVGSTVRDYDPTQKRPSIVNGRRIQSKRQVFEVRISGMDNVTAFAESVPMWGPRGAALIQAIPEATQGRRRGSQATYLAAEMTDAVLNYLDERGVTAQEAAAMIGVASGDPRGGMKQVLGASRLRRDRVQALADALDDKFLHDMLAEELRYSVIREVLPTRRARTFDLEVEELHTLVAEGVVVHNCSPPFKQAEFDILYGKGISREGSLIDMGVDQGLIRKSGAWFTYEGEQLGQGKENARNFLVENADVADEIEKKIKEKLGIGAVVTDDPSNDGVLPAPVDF

Genome polyprotein = Genome polyprotein (dengue virus type 2, UniProt P29990); assay: flavivirus cap methylation enzyme inhibition – biochemical, confirmation dose response, primary screen (AID 588689); type: functional
Chain of Genome polyprotein (P29990 2492-3391 limits assumed): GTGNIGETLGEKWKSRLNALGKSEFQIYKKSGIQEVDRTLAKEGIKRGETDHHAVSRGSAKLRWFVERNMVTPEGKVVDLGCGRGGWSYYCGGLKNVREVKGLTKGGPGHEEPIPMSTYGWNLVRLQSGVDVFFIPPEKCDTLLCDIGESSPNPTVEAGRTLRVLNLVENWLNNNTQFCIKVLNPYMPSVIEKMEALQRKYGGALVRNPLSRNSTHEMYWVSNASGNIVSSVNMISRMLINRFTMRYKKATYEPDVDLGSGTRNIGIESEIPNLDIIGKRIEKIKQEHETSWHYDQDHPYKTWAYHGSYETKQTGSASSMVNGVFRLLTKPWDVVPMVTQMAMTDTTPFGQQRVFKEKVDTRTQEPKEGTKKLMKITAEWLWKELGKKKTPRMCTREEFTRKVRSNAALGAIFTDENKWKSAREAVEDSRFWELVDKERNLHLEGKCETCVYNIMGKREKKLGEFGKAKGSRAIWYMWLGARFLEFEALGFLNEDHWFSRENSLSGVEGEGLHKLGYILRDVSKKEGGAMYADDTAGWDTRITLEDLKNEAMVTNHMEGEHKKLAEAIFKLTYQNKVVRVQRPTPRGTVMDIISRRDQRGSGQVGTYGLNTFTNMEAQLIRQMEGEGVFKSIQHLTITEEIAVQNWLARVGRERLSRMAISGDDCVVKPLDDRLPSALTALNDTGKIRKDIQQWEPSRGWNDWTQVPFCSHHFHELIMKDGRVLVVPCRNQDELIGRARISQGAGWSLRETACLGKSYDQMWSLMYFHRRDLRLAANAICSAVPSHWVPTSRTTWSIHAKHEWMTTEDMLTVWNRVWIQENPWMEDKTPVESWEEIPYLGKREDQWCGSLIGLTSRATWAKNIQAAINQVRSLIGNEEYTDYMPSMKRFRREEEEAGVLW

[7] = viability of uninfected HEp-2 cells – cell-based, HTS, cytotoxicity control for RSV inhibitor project, dose response (AID 2410); type: functional; conditions: human respiratory syncytial virus
[8] = target: Heat shock protein HSP 90-alpha (Homo sapiens, UniProt P07900); type: functional, organism-based
[9] = target: Luciferin 4-monooxygenase (Photinus pyralis, UniProt P08659); assay: inhibition of purified Photinus pyralis luciferase – biochemical, luminescence, dose response (AID 1891)
Chain of Luciferin 4-monooxygenase (P08659 whole entry): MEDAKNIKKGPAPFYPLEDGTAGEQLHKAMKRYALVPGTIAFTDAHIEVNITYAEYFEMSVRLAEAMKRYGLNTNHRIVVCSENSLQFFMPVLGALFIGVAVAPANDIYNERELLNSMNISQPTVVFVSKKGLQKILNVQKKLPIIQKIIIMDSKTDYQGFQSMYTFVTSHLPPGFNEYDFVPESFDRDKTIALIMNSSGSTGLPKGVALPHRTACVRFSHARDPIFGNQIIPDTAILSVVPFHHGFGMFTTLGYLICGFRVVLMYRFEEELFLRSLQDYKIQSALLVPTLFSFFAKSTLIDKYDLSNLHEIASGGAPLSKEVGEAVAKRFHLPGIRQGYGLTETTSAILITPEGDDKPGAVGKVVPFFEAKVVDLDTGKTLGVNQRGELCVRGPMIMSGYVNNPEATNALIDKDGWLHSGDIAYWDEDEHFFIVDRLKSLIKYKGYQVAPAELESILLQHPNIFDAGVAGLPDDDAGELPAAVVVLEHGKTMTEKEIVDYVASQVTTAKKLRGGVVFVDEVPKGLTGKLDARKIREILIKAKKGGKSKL

[10] = Luminescence Cell-Based Dose Confirmation HTS to Identify Inhibitors of Platelet Dense Granule Release. [Related pubchem assays: 1663 (Primary HTS), 1678 (Summary of Project)]; type: functional
Cytochrome P450 2C19 = Cytochrome P450 2C19 (Homo sapiens, UniProt P33261); assay: Cytochrome panel assay with activity outcomes. Panel member name: p450-cyp2c19 Compounds with AC50 equal or less than 10 uM are considered active; type: functional; conditions: read-out: AC50
Chain of Cytochrome P450 2C19 (P33261 whole entry): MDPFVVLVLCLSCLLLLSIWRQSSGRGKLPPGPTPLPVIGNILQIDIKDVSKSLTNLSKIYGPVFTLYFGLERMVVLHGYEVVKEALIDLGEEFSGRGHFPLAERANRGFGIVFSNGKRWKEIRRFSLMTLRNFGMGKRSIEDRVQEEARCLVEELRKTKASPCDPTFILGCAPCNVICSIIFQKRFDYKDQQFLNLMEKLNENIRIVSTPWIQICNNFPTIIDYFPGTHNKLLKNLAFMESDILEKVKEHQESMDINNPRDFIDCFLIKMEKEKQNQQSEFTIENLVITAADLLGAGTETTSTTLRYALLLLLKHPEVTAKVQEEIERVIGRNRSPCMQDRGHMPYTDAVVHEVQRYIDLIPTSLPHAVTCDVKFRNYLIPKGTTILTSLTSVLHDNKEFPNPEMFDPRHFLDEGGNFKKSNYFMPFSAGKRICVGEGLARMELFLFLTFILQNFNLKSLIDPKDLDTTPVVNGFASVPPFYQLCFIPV

[11] = target: Ras and Rab interactor 1/Tyrosine-protein kinase ABL1 (Homo sapiens, UniProt P00519+Q13671); type: functional;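 further: biochemical TR-FRET dose-response test measuring inhibition of binding between Rin1 and Abl proteins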
Chain of Ras and Rab interactor 1/Tyrosine-protein kinase ABL1 (P00519 whole entry): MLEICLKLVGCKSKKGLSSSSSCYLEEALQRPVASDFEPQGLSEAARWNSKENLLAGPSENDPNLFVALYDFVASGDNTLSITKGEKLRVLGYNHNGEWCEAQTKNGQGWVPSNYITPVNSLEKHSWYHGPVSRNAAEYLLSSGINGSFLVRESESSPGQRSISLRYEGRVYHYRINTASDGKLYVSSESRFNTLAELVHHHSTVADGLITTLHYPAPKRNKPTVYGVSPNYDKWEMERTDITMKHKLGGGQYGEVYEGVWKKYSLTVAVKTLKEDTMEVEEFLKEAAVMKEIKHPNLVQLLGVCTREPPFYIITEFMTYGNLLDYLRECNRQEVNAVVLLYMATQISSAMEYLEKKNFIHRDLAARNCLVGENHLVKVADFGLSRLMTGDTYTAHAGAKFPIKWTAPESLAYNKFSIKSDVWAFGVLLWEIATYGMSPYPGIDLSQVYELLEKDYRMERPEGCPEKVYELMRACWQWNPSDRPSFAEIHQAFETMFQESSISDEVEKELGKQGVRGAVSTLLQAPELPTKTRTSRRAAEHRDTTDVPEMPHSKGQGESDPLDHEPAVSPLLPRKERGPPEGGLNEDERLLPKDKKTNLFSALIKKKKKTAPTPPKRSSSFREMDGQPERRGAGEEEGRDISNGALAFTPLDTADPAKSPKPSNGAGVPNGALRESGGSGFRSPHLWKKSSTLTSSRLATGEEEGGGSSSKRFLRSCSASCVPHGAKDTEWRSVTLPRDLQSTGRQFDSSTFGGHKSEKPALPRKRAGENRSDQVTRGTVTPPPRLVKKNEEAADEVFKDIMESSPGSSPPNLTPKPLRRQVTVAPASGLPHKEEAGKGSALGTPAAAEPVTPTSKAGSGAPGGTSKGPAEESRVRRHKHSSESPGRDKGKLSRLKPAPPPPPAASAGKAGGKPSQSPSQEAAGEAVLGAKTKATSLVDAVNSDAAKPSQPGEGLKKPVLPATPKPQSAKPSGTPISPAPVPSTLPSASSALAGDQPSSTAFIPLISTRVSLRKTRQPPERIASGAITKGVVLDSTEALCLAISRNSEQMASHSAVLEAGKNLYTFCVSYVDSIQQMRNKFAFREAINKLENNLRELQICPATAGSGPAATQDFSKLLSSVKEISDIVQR
Chain of Ras and Rab interactor 1/Tyrosine-protein kinase ABL1 (Q13671 whole entry): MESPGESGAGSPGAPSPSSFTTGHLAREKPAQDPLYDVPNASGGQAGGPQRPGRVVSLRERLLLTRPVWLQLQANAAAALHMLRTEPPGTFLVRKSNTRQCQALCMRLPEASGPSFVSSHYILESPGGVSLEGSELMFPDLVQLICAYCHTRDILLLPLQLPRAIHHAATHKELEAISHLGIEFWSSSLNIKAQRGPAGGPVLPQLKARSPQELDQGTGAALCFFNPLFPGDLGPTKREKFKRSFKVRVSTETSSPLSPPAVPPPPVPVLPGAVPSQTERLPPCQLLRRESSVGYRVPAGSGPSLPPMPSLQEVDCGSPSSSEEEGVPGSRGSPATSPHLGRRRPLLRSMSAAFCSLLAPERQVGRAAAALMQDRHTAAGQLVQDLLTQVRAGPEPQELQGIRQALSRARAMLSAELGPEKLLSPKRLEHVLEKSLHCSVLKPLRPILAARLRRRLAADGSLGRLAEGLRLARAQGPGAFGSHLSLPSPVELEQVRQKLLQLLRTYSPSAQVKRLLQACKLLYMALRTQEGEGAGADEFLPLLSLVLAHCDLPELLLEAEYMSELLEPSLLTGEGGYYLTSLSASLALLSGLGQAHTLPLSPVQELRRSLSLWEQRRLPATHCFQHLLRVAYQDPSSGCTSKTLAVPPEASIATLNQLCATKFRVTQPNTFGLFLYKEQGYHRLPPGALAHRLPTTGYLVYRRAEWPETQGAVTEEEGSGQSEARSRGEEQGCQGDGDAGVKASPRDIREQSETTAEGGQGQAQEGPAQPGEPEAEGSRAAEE

Cytochrome P450 1A2 = target: T5, Cytochrome P450 1A2 (Homo sapiens, UniProt P05177);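 further: PubChem cytochrome P450 panel assay, CYP1A2 panel member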
T5 sequence (P05177 whole entry): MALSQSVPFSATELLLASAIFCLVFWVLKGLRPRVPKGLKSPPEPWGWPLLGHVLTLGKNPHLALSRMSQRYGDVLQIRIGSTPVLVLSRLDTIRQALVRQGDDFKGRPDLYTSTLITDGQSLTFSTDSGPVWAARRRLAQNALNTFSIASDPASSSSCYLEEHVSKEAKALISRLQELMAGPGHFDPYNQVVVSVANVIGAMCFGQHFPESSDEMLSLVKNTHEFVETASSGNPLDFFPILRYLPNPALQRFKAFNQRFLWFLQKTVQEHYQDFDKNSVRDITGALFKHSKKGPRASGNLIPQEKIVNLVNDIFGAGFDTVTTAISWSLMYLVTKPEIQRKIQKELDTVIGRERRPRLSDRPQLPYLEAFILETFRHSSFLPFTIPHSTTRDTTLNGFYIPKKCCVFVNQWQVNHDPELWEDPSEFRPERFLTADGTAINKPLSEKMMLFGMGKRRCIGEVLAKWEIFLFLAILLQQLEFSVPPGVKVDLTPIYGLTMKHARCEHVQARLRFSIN

Cytochrome P450 3A4 = Cytochrome P450 3A4 (Homo sapiens, UniProt P08684);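 further: CYP3A4 tested as one member of a cytochrome P450 panel screen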
Chain of Cytochrome P450 3A4 (P08684 whole entry): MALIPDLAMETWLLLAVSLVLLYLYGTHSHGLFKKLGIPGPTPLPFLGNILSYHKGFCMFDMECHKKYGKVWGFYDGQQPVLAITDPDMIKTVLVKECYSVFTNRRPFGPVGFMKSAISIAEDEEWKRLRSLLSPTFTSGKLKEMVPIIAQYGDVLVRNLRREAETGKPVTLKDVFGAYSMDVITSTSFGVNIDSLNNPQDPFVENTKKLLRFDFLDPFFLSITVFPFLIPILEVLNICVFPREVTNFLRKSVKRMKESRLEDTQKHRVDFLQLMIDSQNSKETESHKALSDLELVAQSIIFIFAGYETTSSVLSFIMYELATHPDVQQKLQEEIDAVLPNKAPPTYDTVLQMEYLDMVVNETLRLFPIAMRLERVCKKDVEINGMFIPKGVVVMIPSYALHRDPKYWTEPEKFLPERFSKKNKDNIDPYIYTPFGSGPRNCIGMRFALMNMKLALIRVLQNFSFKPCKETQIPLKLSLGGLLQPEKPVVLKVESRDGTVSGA

SMILES | IC50 (CHO-K1) | IC50 [1] | IC50 [2] | IC50 [3] | IC50 (Orexin receptor type 2 [4]) | IC50 (Orexin receptor type 2 [5]) | also measured
CC(C)(O)c1cc2ccc(C#Cc3ccsc3)cc2c(=O)o1 | > 66.2 µM (inactive) | > 49.7 µM (inactive) | 4.32 µM (active) | 9.4 µM (active) | > 88.8 µM (inactive) | > 50 µM (inactive) | 
COC(=O)c1cccc(N2C(=O)C(Cl)=C(N3CCOCC3)C2=O)c1 |  |  |  |  |  |  | AC50 [6]: 4.2 µM (active); EC50 (Protein RecA): 1.93 µM (active); IC50 (Genome polyprotein): 23.6 µM (active)
COc1ccc(CN2CC[C@H]3C=CC[C@@H](C(=O)Nc4ccc(Cl)c(C(F)(F)F)c4)[C@H]3C2=O)cc1OC | > 66.2 µM (inactive) | > 49.8 µM (inactive) | 0.071 µM (active) | 3.22 µM (active) | > 88.8 µM (inactive) | > 50 µM (inactive) | CC50 [7]: 42.4 µM (active); IC50 (cells): 23.6 µM (active)
COc1ccc2c(c1)C=C(C(=O)NCc1ccc(Cl)cc1)CO2 |  |  |  |  |  |  | AC50 [8]: 69.4 µM (active)
CCOC(=O)N1CCC(NC(=O)CCc2nc(C3=CCN(C)CC3)no2)CC1 |  |  |  |  |  |  | EC50 [9]: > 112 µM (not active); EC50 [10]: > 112 µM (not active); AC50 (Cytochrome P450 2C19): 11.2 µM (inconclusive); IC50 [11]: 5.11 µM (active); AC50 (Cytochrome P450 1A2): 1 µM (inconclusive); AC50 (Cytochrome P450 3A4): 25.1 µM (inconclusive)
